From US8236818B2, “Substituted imidazopyridine derivatives as melanocortin-4 receptor antagonists” (Santhera Pharmaceuticals (Schweiz) AG, priority 2007, dated 2012)

The molecules below were run against T1, melanocortin-4 receptor (Homo sapiens, UniProt P32245) (assay: Membrane binding assay (fluorescence polarization, competition with fluorescence labeled NDP-alpha-MSH)). Settings: read-out: hMC-4R binding assay IC50/μM.
T1 construct: expressed in transfected cells; host or cells: HEK293 cells (membrane preparations)
T1 sequence (P32245 whole entry): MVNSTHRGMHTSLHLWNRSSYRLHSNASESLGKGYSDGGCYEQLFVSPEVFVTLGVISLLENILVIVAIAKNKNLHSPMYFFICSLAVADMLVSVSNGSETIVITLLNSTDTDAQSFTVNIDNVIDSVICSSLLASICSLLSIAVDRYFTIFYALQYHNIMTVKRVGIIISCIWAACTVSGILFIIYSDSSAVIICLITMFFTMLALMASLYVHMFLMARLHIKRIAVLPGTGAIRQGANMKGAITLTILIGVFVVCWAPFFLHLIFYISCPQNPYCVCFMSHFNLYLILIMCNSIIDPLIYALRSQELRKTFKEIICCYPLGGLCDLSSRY
`CC(C)CCN(CCC(C)C)C(=O)c1ccc2nc(-c3ccc(OCC(C)O)nc3)c(CCCN3CCCC3)n2c1` (stereo not shown) [Example 94] showed an IC50 greater than 1 µM.
In the case of `CC(C)CCN(CCC(C)C)C(=O)c1ccc2nc(-c3ccc4c(c3)NC(=O)CO4)c(CN3CCC(N)CC3)n2c1` [Example 137], the IC50 is reported as 0.1 to 1 µM.
For `CC(=O)OCCn1cc(-c2nc3ccc(C(=O)N(CCC(C)C)CCC(C)C)cn3c2CCCN2CCCC2)ccc1=O` [Example 99], the IC50 was less than 0.1 µM.
`COc1cccc(-c2nc3ccc(C(=O)N(CCC(C)C)CCC(C)C)cn3c2CCCN2CCN(C)CC2)c1` [Example 15] gave an IC50 of 0.1 to 1 µM.
`COc1cccc(-c2nc3ccc(C(=O)N(CCC(C)C)CCC(C)C)cn3c2CCCN2CC[C@H](O)C2)c1` [Example 33] gave an IC50 of less than 0.1 µM.
`COc1cccc(-c2nc3ccc(C(=O)N(CCC(C)C)CCC(C)C)cn3c2CCCN2CCC(F)CC2)c1` [Example 30] showed an IC50 of less than 0.1 µM.
For `CC(C)CCN(CCC(C)C)C(=O)c1ccc2nc(-c3ncco3)c(CCCN3CC[C@@H](O)C3)n2c1` [Example 71], the IC50 was 0.1 to 1 µM.
Work on `CCN(CC)CCCc1c(-c2cccc(OC)c2)nc2ccc(C(=O)N(CCC(C)C)CCC(C)C)cn12` [Example 8] yielded an IC50 of less than 0.1 µM.
`CC(C)CCN(CCC(C)C)C(=O)c1ccc2nc(-c3ncco3)c(CCCN3CCC[C@@H]3C)n2c1` [Example 85] showed an IC50 of less than 0.1 µM.
With `COc1cccc(-c2nc3ccc(C(=O)N(CCC(C)C)CCC(C)C)cn3c2CCCN2CC[C@H](F)C2)c1` [Example 14] the IC50 was less than 0.1 µM.
Molecule `CC1CCCN1CCCc1c(-c2ccc(=O)[nH]c2)nc2ccc(C(=O)N(CCC3CC3)CCC3CC3)cn12` (stereo not shown) [Example 109] has an IC50 of less than 0.1 µM.
In the case of `CC(C)CCN(CCC(C)C)C(=O)c1ccc2nc(-c3ccc(=O)[nH]c3)c(CCCN3CCCC3C)n2c1` (stereo not shown) [Example 100], the IC50 is reported as less than 0.1 µM.
Molecule `CC(C)CCN(CCC(C)C)C(=O)c1ccc2nc(-c3ccc(C#N)cc3)c(CCN3CCCC3)n2c1` [Example 26] has an IC50 of 0.1 to 1 µM.
Work on `CC(C)CC1CCCN1C(=O)c1ccc2nc(-c3ccc(C#N)cc3)c(CCCN3CCCC3)n2c1` (stereo not shown) [Example 146] yielded an IC50 of 0.1 to 1 µM.
`CC(C)CCN(CCC(C)C)C(=O)c1ccc2nc(-c3ccc(S(C)(=O)=O)cc3)c(CCCN3CCCC3)n2c1` [Example 35] was tested, and the IC50 was less than 0.1 µM.
`CC(C)CCN(CCC(C)C)C(=O)c1ccc2nc(-c3ccc4c(c3)OCCO4)c(CCCN3CCCCC3)n2c1` [Example 2] showed an IC50 of less than 0.1 µM.
In the case of `CC(C)CCN(CCC(C)C)C(=O)c1ccc2nc(-c3ccc(Cl)cc3)c(CCCCN(C)C)n2c1` [Example 24], the IC50 is reported as greater than 1 µM.
`CC(C)CCN(CCC(C)C)C(=O)c1ccc2nc(-c3ccc4c(c3)OCCO4)c(CCCN)n2c1` [Example 1] showed an IC50 of 0.1 to 1 µM.
For `CC(=O)OCCOc1ccc(-c2nc3ccc(C(=O)N(CCC(C)C)CCC(C)C)cn3c2CCCN2CCCC2)cn1` [Example 97], the IC50 was less than 0.1 µM.
With `CC(C)CCN(CCC(C)C)C(=O)c1ccc2nc(-c3nccs3)c(CCCN3CCCC3)n2c1` [Example 49] the IC50 was less than 0.1 µM.
For `CC(C)CCN(CCC(C)C)C(=O)c1ccc2nc(-c3ccc(OCCCO)nc3)c(CCCN3CCCC3)n2c1` [Example 92], the IC50 was 0.1 to 1 µM.
`COc1cccc(-c2nc3ccc(C(=O)N(CCC(C)C)CCC(C)C)cn3c2CCC(C)N2CCCC2)c1` (stereo not shown) [Example 21] was tested, and the IC50 was less than 0.1 µM.

These molecules were tested against T1, melanocortin-4 receptor (assay: Functional assay (cAMP fluorescence polarization, membrane based, agonistic activity)). Settings: 2 h; read-out: % activation functional assay.
Type: biochemical
In the case of `CC(C)CCN(CCC(C)C)C(=O)c1ccc2nc(-c3ccc(OCC(C)O)nc3)c(CCCN3CCCC3)n2c1` (stereo not shown) [Example 94], the Emax is reported as -13%.
`CC(C)CCN(CCC(C)C)C(=O)c1ccc2nc(-c3ccc4c(c3)NC(=O)CO4)c(CN3CCC(N)CC3)n2c1` [Example 137] gave an Emax of 0%.
Work on `CC(=O)OCCn1cc(-c2nc3ccc(C(=O)N(CCC(C)C)CCC(C)C)cn3c2CCCN2CCCC2)ccc1=O` [Example 99] yielded an Emax of 4%.
Molecule `COc1cccc(-c2nc3ccc(C(=O)N(CCC(C)C)CCC(C)C)cn3c2CCCN2CCN(C)CC2)c1` [Example 15] has an Emax of 0%.
For `COc1cccc(-c2nc3ccc(C(=O)N(CCC(C)C)CCC(C)C)cn3c2CCCN2CC[C@H](O)C2)c1` [Example 33], the Emax was -22%.
Work on `COc1cccc(-c2nc3ccc(C(=O)N(CCC(C)C)CCC(C)C)cn3c2CCCN2CCC(F)CC2)c1` [Example 30] yielded an Emax of 0%.
`CC(C)CCN(CCC(C)C)C(=O)c1ccc2nc(-c3ncco3)c(CCCN3CC[C@@H](O)C3)n2c1` [Example 71] was tested, and the Emax was 0%.
Molecule `CCN(CC)CCCc1c(-c2cccc(OC)c2)nc2ccc(C(=O)N(CCC(C)C)CCC(C)C)cn12` [Example 8] has an Emax of 0%.
In the case of `CC(C)CCN(CCC(C)C)C(=O)c1ccc2nc(-c3ncco3)c(CCCN3CCC[C@@H]3C)n2c1` [Example 85], the Emax is reported as -2%.
`COc1cccc(-c2nc3ccc(C(=O)N(CCC(C)C)CCC(C)C)cn3c2CCCN2CC[C@H](F)C2)c1` [Example 14] showed an Emax of 0%.
In the case of `CC1CCCN1CCCc1c(-c2ccc(=O)[nH]c2)nc2ccc(C(=O)N(CCC3CC3)CCC3CC3)cn12` (stereo not shown) [Example 109], the Emax is reported as -23%.
`CC(C)CCN(CCC(C)C)C(=O)c1ccc2nc(-c3ccc(=O)[nH]c3)c(CCCN3CCCC3C)n2c1` (stereo not shown) [Example 100] gave an Emax of -22%.
For `CC(C)CCN(CCC(C)C)C(=O)c1ccc2nc(-c3ccc(C#N)cc3)c(CCN3CCCC3)n2c1` [Example 26], the Emax was 0%.
Work on `CC(C)CC1CCCN1C(=O)c1ccc2nc(-c3ccc(C#N)cc3)c(CCCN3CCCC3)n2c1` (stereo not shown) [Example 146] yielded an Emax of 0%.
In the case of `CC(C)CCN(CCC(C)C)C(=O)c1ccc2nc(-c3ccc(S(C)(=O)=O)cc3)c(CCCN3CCCC3)n2c1` [Example 35], the Emax is reported as 0%.
In the case of `CC(C)CCN(CCC(C)C)C(=O)c1ccc2nc(-c3ccc4c(c3)OCCO4)c(CCCN3CCCCC3)n2c1` [Example 2], the Emax is reported as 0%.
Work on `CC(C)CCN(CCC(C)C)C(=O)c1ccc2nc(-c3ccc(Cl)cc3)c(CCCCN(C)C)n2c1` [Example 24] yielded an Emax of 0%.
`CC(C)CCN(CCC(C)C)C(=O)c1ccc2nc(-c3ccc4c(c3)OCCO4)c(CCCN)n2c1` [Example 1] showed an Emax of 0%.
Work on `CC(=O)OCCOc1ccc(-c2nc3ccc(C(=O)N(CCC(C)C)CCC(C)C)cn3c2CCCN2CCCC2)cn1` [Example 97] yielded an Emax of 1%.
For `CC(C)CCN(CCC(C)C)C(=O)c1ccc2nc(-c3nccs3)c(CCCN3CCCC3)n2c1` [Example 49], the Emax was 0%.
Molecule `CC(C)CCN(CCC(C)C)C(=O)c1ccc2nc(-c3ccc(OCCCO)nc3)c(CCCN3CCCC3)n2c1` [Example 92] has an Emax of -31%.
For `COc1cccc(-c2nc3ccc(C(=O)N(CCC(C)C)CCC(C)C)cn3c2CCC(C)N2CCCC2)c1` (stereo not shown) [Example 21], the Emax was 0%.

Same assay, conditions: agonistic activity, cAMP, HEK293 membrane preparations; read-out: hMC-4R functional assay EC50/μM
`COc1cccc(-c2nc3ccc(C(=O)N(CCC(C)C)CCC(C)C)cn3c2CCCN2CC[C@H](O)C2)c1` [Example 33] showed an EC50 of less than 0.1 µM.
Work on `CC(C)CCN(CCC(C)C)C(=O)c1ccc2nc(-c3ccc(OCCCO)nc3)c(CCCN3CCCC3)n2c1` [Example 92] yielded an EC50 of less than 0.1 µM.
